# Where two headings read alike, the source gives them in different places. Positions of bridges follow the written chain, without caps; N, C: chain ends. Non-standard residues stand in square brackets, D forms with d. Residues, ends and D or L forms follow the SMILES beside them. *: point of attachment. Trp(5-Cl) = N[C@@H](Cc1c[nH]c2ccc(Cl)cc12)C(=O)O; Phe(3-CF3) = N[C@@H](Cc1cccc(C(F)(F)F)c1)C(=O)O; Cyclohexanecarbonyl = O=C(C1CCCCC1)*; Bta = N[C@@H](Cc1csc2ccccc12)C(=O)O; NMeNle = CCCC[C@H](NC)C(=O)O; NMeA = CN[C@@H](C)C(=O)O; 2Furoyl = O=C(c1ccco1)*; Dab = NCC[C@H](N)C(=O)O; Dap = NC[C@H](N)C(=O)O; Bz = O=C(c1ccccc1)*; Sar = CNCC(=O)O
# Tests used:
# [1] = target: T1, LK35.2-hPD-L1 cells / PE-labeled PD-1-Ig (Homo sapiens, UniProt Q9NZQ7); experiment: LK35.2-hPD-L1 cell binding high-content screening assay; format: cell-based; settings: cell line of CBA not given (LK35.2-hPD-L1 or 293T-hPD-L1)
# T1 construct: expressed in transfected cells; host or cells: LK35.2 mouse B cell line
# T1 sequence (Q9NZQ7 19-290): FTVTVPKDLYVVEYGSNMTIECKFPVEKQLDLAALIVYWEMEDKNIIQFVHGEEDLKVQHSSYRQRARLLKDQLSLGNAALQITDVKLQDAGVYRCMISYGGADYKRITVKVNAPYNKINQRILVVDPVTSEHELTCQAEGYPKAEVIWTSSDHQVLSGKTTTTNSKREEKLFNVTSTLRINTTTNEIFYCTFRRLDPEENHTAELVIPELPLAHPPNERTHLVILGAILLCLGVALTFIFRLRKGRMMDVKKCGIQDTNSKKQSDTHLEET
# Method: LK35.2-hPD-L1 Cell Binding High-Content Screening Assay. Phycoerythrin (PE) was covalently linked to the Ig epitope tag of human PD-1-Ig and fluorescently-labeled PD-1-Ig was used for binding studies with a mouse B cell line (LK35.2) stably over-expressing human PD-L1 (LK35.2-hPD-L1). Briefly, 3×10^3 LK35.2-hPD-L1 cells were seeded into 384 well plates in 20 ul of RPMI supplemented with 10% fetal calf serum and cultured overnight. 125 nl of compound was added to cells, followed by 5 ul of PE-labeled PD-1-Ig (1 nM final), diluted in RPMI supplemented with 10% fetal calf serum, followed by incubation at 37° C. for 1 h. […] Cells were washed 3× in 100 ul of dPBS followed by final addition of 15 ul of dPBS. Data was collected and processed using a Cell Insight NXT High Content Imager and associated software.
# Human PD-L1/PD-1 = target: T2, Human PD-L1/PD-1 (Homo sapiens, UniProt Q9NZQ7); experiment: HTRF PD-1-Ig/PD-L1-His binding assay (human PD-L1)
# T2 construct: made in house; host or cells: HEK293T
# T2 sequence (Q9NZQ7 with tags, fused parts or gaps): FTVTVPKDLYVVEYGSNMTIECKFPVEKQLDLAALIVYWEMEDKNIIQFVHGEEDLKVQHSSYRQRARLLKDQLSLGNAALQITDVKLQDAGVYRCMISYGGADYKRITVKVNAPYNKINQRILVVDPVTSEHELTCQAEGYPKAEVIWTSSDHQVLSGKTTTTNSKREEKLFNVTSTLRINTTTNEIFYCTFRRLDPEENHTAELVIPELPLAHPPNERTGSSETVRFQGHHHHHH
# Summary of the method: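 Soluble PD-1-Ig binding to PD-L1-His measured by HTRF in dPBS with 0.1% BSA and 0.05% Tween-20. Detection used europium cryptate anti-Ig antibody (1 nM final) and APC anti-His antibody (20 nM final) added on top of the binding reaction.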
# [2] = CBA IC50 cluster, cluster symbol
# [3] = HTRF IC50 cluster, cluster symbol
# [4] = cluster symbol, read-out: CBA IC50 cluster
# [5] = cluster symbol, read-out: HTRF IC50 cluster
Compound,"IC50 [1, 4]",IC50 (Human PD-L1/PD-1; [5]),further results
CCCC[C@H]1C(=O)N[C@@H](CCCNC(=N)N)C(=O)N[C@H](C(=O)NCC(N)=O)CSCC(=O)N[C@@H](Cc2ccccc2)C(=O)N(C)[C@@H](C)C(=O)N[C@@H](CC(N)=O)C(=O)N2CCC[C@H]2C(=O)N[C@@H](Cc2cnc[nH]2)C(=O)N[C@@H](CC(C)C)C(=O)N(C)CC(=O)N[C@@H](Cc2c[nH]c3ccccc23)C(=O)N[C@@H](CO)C(=O)N[C@@H](Cc2c[nH]c3ccccc23)C(=O)N[C@@H](CNC(=O)c2ccccc2)C(=O)N1C [Example 1013] ({CH2CO}-F[NMeA]NPHL[Sar]WSW[Dap](Bz)[NMeNle]RCG-NH2; thioether N-14),–,–,"IC50 [1, 2]: > 74.3 nM; IC50 (Human PD-L1/PD-1; [3]): > 30.5 nM"
CCCC[C@H]1C(=O)N(C)[C@@H](CCCC)C(=O)N[C@@H](CCCNC(=N)N)C(=O)N[C@H](C(=O)NCC(N)=O)CSCC(=O)N[C@@H](Cc2ccc(O)cc2)C(=O)N(C)[C@@H](C)C(=O)N[C@@H](CC(N)=O)C(=O)N2CCC[C@H]2C(=O)N[C@@H](Cc2cnc[nH]2)C(=O)N[C@@H](CC(C)C)C(=O)N2CCC[C@H]2C(=O)N[C@@H](Cc2c[nH]c3ccccc23)C(=O)N[C@@H](CO)C(=O)N[C@@H](Cc2csc3ccccc23)C(=O)N1C [Example 1014] ({CH2CO}-Y[NMeA]NPHLPWS[Bta][NMeNle][NMeNle]RCG-NH2; thioether N-14),0.158 to 4.71 nM,0.385 to 6.74 nM,–
CCCC[C@H]1C(=O)N(C)[C@@H](CCCC)C(=O)N[C@@H](CCCNC(=N)N)C(=O)N[C@H](C(=O)NCC(N)=O)CSCC(=O)N[C@@H](Cc2ccccc2)C(=O)N(C)[C@@H](C)C(=O)N[C@@H](CC(N)=O)C(=O)N2CCC[C@H]2C(=O)N[C@@H](Cc2cnc[nH]2)C(=O)N[C@@H](CC(C)C)C(=O)N2CCC[C@H]2C(=O)N[C@@H](Cc2c[nH]c3ccccc23)C(=O)N[C@@H](CO)C(=O)N[C@@H](Cc2csc3ccccc23)C(=O)N1C [Example 1015] ({CH2CO}-F[NMeA]NPHLPWS[Bta][NMeNle][NMeNle]RCG-NH2; thioether N-14),4.78 to 72.9 nM,6.76 to 30.3 nM,–
CCCC[C@H]1C(=O)N(C)[C@@H](CCCC)C(=O)N[C@@H](CCCNC(=N)N)C(=O)N[C@H](C(=O)NCC(N)=O)CSCC(=O)N[C@@H](Cc2ccc(O)cc2)C(=O)N(C)[C@@H](C)C(=O)N[C@@H](CC(N)=O)C(=O)N2CCC[C@H]2C(=O)N[C@@H](Cc2cnc[nH]2)C(=O)N[C@@H](CC(C)C)C(=O)N2CCC[C@H]2C(=O)N[C@@H](Cc2c[nH]c3ccccc23)C(=O)N[C@@H](CO)C(=O)N[C@@H](Cc2c[nH]c3ccccc23)C(=O)N1C [Example 1016] ({CH2CO}-Y[NMeA]NPHLPWSW[NMeNle][NMeNle]RCG-NH2; thioether N-14),0.158 to 4.71 nM,0.385 to 6.74 nM,–
CCCC[C@H]1C(=O)N[C@@H](CCCNC(=N)N)C(=O)N[C@H](C(=O)NCC(N)=O)CSCC(=O)N[C@@H](Cc2ccccc2)C(=O)N(C)[C@@H](C)C(=O)N[C@@H](CC(N)=O)C(=O)N2CCC[C@H]2C(=O)N[C@@H](Cc2cnc[nH]2)C(=O)N[C@@H](CC(C)C)C(=O)N(C)CC(=O)N[C@@H](Cc2c[nH]c3ccccc23)C(=O)N[C@@H](CO)C(=O)N[C@@H](Cc2c[nH]c3ccccc23)C(=O)N[C@@H](CNC(=O)C2CCCCC2)C(=O)N1C [Example 1017] ({CH2CO}-F[NMeA]NPHL[Sar]WSW[Dap](Cyclohexanecarbonyl)[NMeNle]RCG-NH2; thioether N-14),> 74.3 nM,> 30.5 nM,–
CCCC[C@H]1C(=O)N(C)[C@@H](CCCC)C(=O)N[C@@H](CCCNC(=N)N)C(=O)N[C@H](C(=O)NCC(N)=O)CSCC(=O)N[C@@H](Cc2ccccc2)C(=O)N(C)[C@@H](C)C(=O)N[C@@H](CC(N)=O)C(=O)N2CCC[C@H]2C(=O)N[C@@H](Cc2cnc[nH]2)C(=O)N[C@@H](CC(C)C)C(=O)N(C)CC(=O)N[C@@H](Cc2cccc(C(F)(F)F)c2)C(=O)N[C@@H](CO)C(=O)N[C@@H](Cc2c[nH]c3ccccc23)C(=O)N1C [Example 1018] ({CH2CO}-F[NMeA]NPHL[Sar][Phe(3-CF3)]SW[NMeNle][NMeNle]RCG-NH2; thioether N-14),> 74.3 nM,> 30.5 nM,–
CCCC[C@H]1C(=O)N(C)[C@@H](CCCC)C(=O)N[C@@H](CCCNC(=N)N)C(=O)NC(C(=O)NCC(N)=O)CSCC(=O)N[C@@H](Cc2ccccc2)C(=O)N(C)[C@@H](C)C(=O)N[C@@H](CC(N)=O)C(=O)N2CCC[C@H]2C(=O)N[C@@H](Cc2cnc[nH]2)C(=O)N[C@@H](CC(C)C)C(=O)N[C@@H](CCNC(=O)C2CCCCC2)C(=O)N[C@@H](Cc2c[nH]c3ccccc23)C(=O)N[C@@H](CO)C(=O)N[C@@H](Cc2c[nH]c3ccccc23)C(=O)N1C (stereo partly shown) [Example 1021],–,–,IC50 ([1]; read-out: CBA IC50 value): 262 nM; IC50 (Human PD-L1/PD-1; read-out: HTRF IC50 value): 180 nM
CCCC[C@H]1C(=O)N(C)[C@@H](CCCC)C(=O)N[C@@H](CCCNC(=N)N)C(=O)N[C@H](C(=O)NCC(N)=O)CSCC(=O)N[C@@H](Cc2ccccc2)C(=O)N(C)[C@@H](C)C(=O)N[C@@H](CC(N)=O)C(=O)N2CCC[C@H]2C(=O)N[C@@H](Cc2c[nH]cn2)C(=O)N[C@@H](CC(C)C)C(=O)N[C@@H](CCNC(=O)c2ccccc2)C(=O)N[C@@H](Cc2c[nH]c3ccccc23)C(=O)N[C@@H](CO)C(=O)N[C@@H](Cc2c[nH]c3ccccc23)C(=O)N1C [Example 1022] ({CH2CO}-F[NMeA]NPHL[Dab](Bz)WSW[NMeNle][NMeNle]RCG-NH2; thioether N-14),–,–,"IC50 [1, 2]: > 74.3 nM; IC50 (Human PD-L1/PD-1; [3]): > 30.5 nM"
CCCC[C@H]1C(=O)N(C)[C@@H](CCCC)C(=O)N[C@@H](CCCNC(=N)N)C(=O)N[C@H](C(=O)NCC(N)=O)CSCC(=O)N[C@@H](Cc2ccccc2)C(=O)N(C)[C@@H](C)C(=O)N[C@@H](CC(N)=O)C(=O)N2CCC[C@H]2C(=O)N[C@@H](Cc2c[nH]cn2)C(=O)N[C@@H](CC(C)C)C(=O)N[C@@H](CCNC(=O)c2ccco2)C(=O)N[C@@H](Cc2c[nH]c3ccccc23)C(=O)N[C@@H](CO)C(=O)N[C@@H](Cc2c[nH]c3ccccc23)C(=O)N1C [Example 1023] ({CH2CO}-F[NMeA]NPHL[Dab](2Furoyl)WSW[NMeNle][NMeNle]RCG-NH2; thioether N-14),> 74.3 nM,> 30.5 nM,–
CCCC[C@H]1C(=O)N(C)[C@@H](CCCC)C(=O)N[C@@H](CCCNC(=N)N)C(=O)N[C@H](C(=O)NCC(N)=O)CSCC(=O)N[C@@H](Cc2ccccc2)C(=O)N(C)[C@@H](C)C(=O)N[C@@H](CC(N)=O)C(=O)N2CCC[C@H]2C(=O)N[C@@H](Cc2cnc[nH]2)C(=O)N[C@@H](CC(C)C)C(=O)N(C)CC(=O)N[C@@H](Cc2c[nH]c3ccc(Cl)cc23)C(=O)N[C@@H](CO)C(=O)N[C@@H](Cc2c[nH]c3ccc(Cl)cc23)C(=O)N1C [Example 1024] ({CH2CO}-F[NMeA]NPHL[Sar][Trp(5-Cl)]S[Trp(5-Cl)][NMeNle][NMeNle]RCG-NH2; thioether N-14),> 74.3 nM,> 30.5 nM,–
CCCC[C@H]1C(=O)N(C)[C@@H](CCCC)C(=O)N[C@@H](CCCNC(=N)N)C(=O)N[C@H](C(=O)NCC(N)=O)CSCC(=O)N[C@@H](Cc2ccccc2)C(=O)N(C)[C@@H](C)C(=O)N[C@@H](CC(N)=O)C(=O)N2CCC[C@H]2C(=O)N[C@@H](Cc2cnc[nH]2)C(=O)N[C@@H](CC(C)C)C(=O)N(C)CC(=O)N[C@@H](Cc2c[nH]c3ccc(Cl)cc23)C(=O)N[C@@H](CO)C(=O)N[C@@H](Cc2c[nH]c3ccccc23)C(=O)N1C [Example 1026] ({CH2CO}-F[NMeA]NPHL[Sar][Trp(5-Cl)]SW[NMeNle][NMeNle]RCG-NH2; thioether N-14),> 74.3 nM,> 30.5 nM,–
